From patent publication US20250188079A1, “INHIBITING CYCLIC AMP-RESPONSIVE ELEMENT-BINDING PROTEIN (CREB)” (Forma Therapeutics, Inc., priority 2019, published 2025) come the findings set out here.

In the test the target is CBP (Homo sapiens (Human), UniProt Q92793). The experiment in a line: HTRF biochemical assay for CBP activity (TR-FRET, bromodomain). It counts as binding. The settings on record: geometric mean, 10-point 3-fold dilution 33 μM to 1.7 nM, read-out: BROMO IC50 TRF TB CBP (μM gmean). Here is the method: Example 1: HTRF Biochemical Assay for CBP Activity
The assay was performed in a final volume of 6 μL in assay buffer containing 50 mM Hepes (pH 7.5, (0.5M Hepes, pH 7.5 solution; Teknova H1575)), 0.5 mM GSH, 0.01% BGG (0.22 p M filtered, Sigma, G7516-25G), 0.005% BSA (0.22 μM filtered, EMD Millipore Corporation, 126575) and 0.01% Triton X-100 (Sigma, T9284-10L). Nanoliter quantities of 10-point, 3-fold serial dilution in DMSO were pre-dispensed into 1536 assay plates (Corning, #3724BC) for a final test concentration of 33 μM to 1.7 nM, top to lowest dose, respectively. 3 μL of 2×Protein and 3 μL of 2×Peptide Ligand were added to assay plates (pre-stamped with compound). Plates were incubated for varying times at room temperature prior to measuring the signal. TR-FRET (Time-Resolved Fluorescence Resonance Energy Transfer) was measured on the PHERAstar (BMG, equipped with HTRF optic module [337/520/490]) or on the Envision (PerkinElmer, equipped with the TRF Laser unit, TRF dual mirror D400/D505 and emission filters M520 and M495). Data were reported as percent inhibition compared with control wells based on the following equation: % inh=1−((TR-FRET ratio−AveLow)/(AveHigh−AveLow)) where TR-FRET ratio=(Fluorescence at 520 nm/Fluorescence at 490 nm)*10000), AveLow=average TR-FRET ratio of no enzyme control (n=32), and AveHigh=average TR-FRET ratio of DMSO control (n=32). IC50 values were determined by curve fitting of the standard 4 parameter logistic fitting algorithm included in the Activity Base software package: IDBS XE Designer Model205. Data is fitted using the Levenburg Marquardt algorithm. As set forth in Table 2 below, an IC50 value of greater than or equal to 0.001 μM and less than or equal to 0.01 μM is marked “++++”; a value greater than 0.01 μM and less than or equal to 0.1 μM is marked “+++”; a value greater than 0.1 μM and less than or equal to 1 μM is marked “++”; and a value greater than 1 μM and less than 1000 μM is marked “+.” Compounds that were not tested in a particular assay are marked “NT.”
(In TR-FRET formats the signal depends on donor and acceptor labels being close together.)

CBP, sequence (Q92793 1085-1192): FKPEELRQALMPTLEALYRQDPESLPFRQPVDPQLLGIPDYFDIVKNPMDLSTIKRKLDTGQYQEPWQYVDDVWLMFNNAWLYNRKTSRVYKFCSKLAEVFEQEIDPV

The term IC50 denotes the midpoint of a concentration-inhibition curve. As to “(1R,3R)-3-[3-[(2R)-2-(3,4-difluorophenyl)propyl]-8-(methoxycarbonyl)-3H,6H,7H,8H,9H-imidazo[4,5-h]isoquinolin-2-yl]cyclohexane-1-carboxylic acid [Compound 28]”, the IC50 lay within 0.001 to 0.01 µM.

Regarding `COC(=O)N1CCc2ccc3c(nc([C@H]4CC[C@H](C(=O)O)CC4)n3[C@@H](CO)Cc3ccccc3)c2C1` [Compound 151], the IC50 lay within 0.001 to 0.01 µM.

As to `COC(=O)N1CCc2ccc3c(nc([C@H]4CC[C@H](C(=O)O)CC4)n3[C@@H](C)Cc3ccccc3C)c2C1` [Compound 7], the IC50 was in the range of 0.001 to 0.01 µM.

As to `COC(=O)N1CCc2ccc3c(nc([C@H]4CC[C@H](C(=O)O)CC4)n3[C@@H](C)Cc3ccc(C)cc3)c2C1` [Compound 93], the IC50 was 0.001 to 0.01 µM.

Turning to `COC(=O)N1CCc2ccc3c(nc(C4CCCCC4)n3C[C@H]3CCCC[C@@H]3C(=O)O)c2C1` [Compound 196], the IC50 lay in the range of 0.01 to 0.1 µM.

For the compound `COC(=O)N1CCc2ccc3c(nc(C4CCC4)n3C[C@@H](C(=O)O)c3ccccc3)c2C1` [Compound 157], the IC50 lay within 0.001 to 0.01 µM.

For `COC(=O)N1CCc2ccc3c(nc(C4CCCCC4)n3C[C@@H](O)c3cccc(C(=O)O)c3)c2C1` [Compound 199], the IC50 was in the range of 0.01 to 0.1 µM.

On to `COC(=O)N1CCc2ccc3c(nc(N4CCC(C(=O)O)CC4)n3[C@@H](C)Cc3ccc(F)c(F)c3)c2C1` (single isomer, unassigned) [Compound 23], for which the IC50 was in the range of 0.001 to 0.01 µM.

For `COC(=O)N1CCc2ccc3c(nc([C@H]4CC[C@H](C(=O)O)CC4)n3[C@H](C)Cc3c(F)cccc3F)c2C1` [Compound 95], the IC50 fell in the range of 0.001 to 0.01 µM.

On to `COC(=O)N1CCc2ccc3c(nc([C@H]4CC[C@H](C(=O)O)CC4)n3[C@@H](C)[C@@H](O)c3ccccc3)c2C1` [Compound 92], for which the IC50 was in the range of 0.001 to 0.01 µM.

Turning to `COC(=O)N1CCc2ccc3c(nc(-c4cccc(CC(=O)O)c4)n3[C@@H](C)Cc3ccccc3)c2C1` [Compound 101], the IC50 lay within 0.001 to 0.01 µM.

Consider `COC(=O)N1CCc2ccc3c(nc(-c4ccc(C(=O)O)c(OC)c4)n3[C@H](C)Cc3ccccc3)c2C1` [Compound 321], for which the IC50 is 0.1 to 1 µM.

On to `COC(=O)N1CCc2c(C(=O)O)cc3c(nc(C4CCCCC4)n3[C@H](C)Cc3ccccc3)c2C1` [Compound 300], for which the IC50 is 0.1 to 1 µM.

For the compound `COC(=O)N1CCc2ccc3c(nc([C@H]4CCC[C@H](C(=O)O)C4)n3Cc3cncc(Cl)n3)c2C1` [Compound 254], the IC50 lay in the range of 0.01 to 0.1 µM.

Take `COC(=O)N1CCc2ccc3c(nc(N4CCC(C(=O)O)CC4)n3[C@@H](C)Cc3ccccc3C)c2C1` [Compound 63]: the IC50 lay in the range of 0.001 to 0.01 µM.

Consider `COC(=O)N1CCc2ccc3c(nc([C@H]4CCC[C@H](C(=O)O)C4)n3C[C@H]3CC[C@H](OC)CC3)c2C1` [Compound 255], for which the IC50 fell in the range of 0.01 to 0.1 µM.

Regarding `COC(=O)N1CCc2cc(CC#N)c3c(nc([C@H]4CC[C@H](C(=O)O)CC4)n3CCc3ccccc3)c2C1` [Compound 118], the IC50 is 0.001 to 0.01 µM.

As for `COC(=O)N1CCc2ccc3c(nc(-c4ccc(C(C)(C)C(=O)O)cc4)n3[C@@H](C)Cn3cc(Cl)cn3)c2C1` [Compound 258], the IC50 is 0.01 to 0.1 µM.

`COC(=O)N1CCc2ccc3c(nc(C4CCCCC4)n3CC[C@@H]3CCC[C@H](C(=O)O)C3)c2C1` [Compound 131]: the IC50 lay in the range of 0.001 to 0.01 µM.

With `COC(=O)N1Cc2c(ccc3c2nc(C2CCCCC2)n3Cc2ccccc2)C[C@H]1C` [Compound 282], the 50% inhibitory concentration (IC50) is 0.01 to 0.1 µM.

As for `COC(=O)N1CCc2ccc3c(nc([C@H]4CC[C@H](C(=O)O)CC4)n3C(=O)N(C)c3ccccc3)c2C1` [Compound 292], the IC50 lay in the range of 0.1 to 1 µM.

As for `COC(=O)N1CCc2ccc3c(nc(C4CCCCC4)n3CCc3ccccc3C(=O)O)c2C1` [Compound 137], the IC50 was in the range of 0.001 to 0.01 µM.

As to `COC(=O)N1CCc2ccc3c(nc([C@H]4CC[C@H](C(=O)O)CC4)n3[C@@H](C)Cc3c(F)cccc3F)c2C1` [Compound 289], the IC50 was in the range of 0.01 to 0.1 µM.

On to `COC(=O)N1CCc2ccc3c(nc([C@H]4CC[C@H](C(=O)O)CC4)n3[C@H](C)C[C@@H]3CCCOC3)c2C1` [Compound 212], for which the IC50 is 0.01 to 0.1 µM.

Turning to `COC(=O)N1CCc2ccc3c(nc(C4CCCCC4)n3[C@H](C)C[C@H]3CC[C@@H](C(=O)O)CC3)c2C1` [Compound 142], the IC50 is 0.001 to 0.01 µM.

Regarding `COC(=O)N1CCc2ccc3c(nc([C@H]4CC[C@H](C(=O)O)CC4)n3[C@@H](C)CC3CCOCC3)c2C1` [Compound 188], the IC50 is 0.01 to 0.1 µM.

Consider `COC(=O)N1CCc2c(C(=O)O)cc3c(nc(N4CCCCC4)n3C[C@@H](C)c3ccccc3)c2C1` [Compound 103], for which the IC50 lay within 0.001 to 0.01 µM.

On to `COC(=O)N1CCc2ccc3c(nc([C@H]4CC[C@@H](C(=O)O)CC4)n3[C@@H](C)Cc3ccccc3)c2C1` [Compound 230], for which the IC50 was in the range of 0.01 to 0.1 µM.

As to `COC(=O)N1CCc2ccc3c(nc(C4CCCCC4)n3CC[C@H]3CCCC[C@@H]3C(=O)O)c2C1` [Compound 252], the IC50 was 0.01 to 0.1 µM.

With `COC(=O)N1CCc2ccc3c(nc([C@H]4CC[C@H](C(=O)O)CC4)n3Cc3ccc4c(c3)OCC4)c2C1` [Compound 86], the IC50 lay in the range of 0.001 to 0.01 µM.

As for `COC(=O)N1CCc2ccc3c(nc(C4CCCCC4)n3[C@@H](CC(=O)O)c3ccccc3)c2C1` [Compound 213], the IC50 is 0.01 to 0.1 µM.

On to `COC(=O)N1CCc2ccc3c(nc(C4CCCC4)n3C[C@@H](C(=O)O)c3ccccc3)c2C1` [Compound 205], for which the IC50 is 0.01 to 0.1 µM.

With `COC(=O)N1CCc2ccc3c(nc(C4CCN(C(C)=O)CC4)n3[C@@H](C)Cc3cccnc3)c2C1` [Compound 207], the IC50 is 0.01 to 0.1 µM.

Regarding `COC(=O)N1CCc2c(C#N)cc3c(nc([C@H]4CC[C@H](C(=O)O)CC4)n3[C@H](C)Cc3ccccc3)c2C1` [Compound 269], the IC50 lay in the range of 0.01 to 0.1 µM.

`COC(=O)N1CCc2ccc3c(nc([C@H]4CC[C@H](C(=O)O)CC4)n3[C@@H](C)Cc3cccc(C)c3)c2C1` [Compound 100]: the IC50 is 0.001 to 0.01 µM.

`COC(=O)N1CCc2ccc3c(nc([C@H]4CC[C@@H](C(=O)O)CC4)n3[C@@H](C)Cn3cc(Cl)cn3)c2C1` [Compound 264]: the IC50 was 0.01 to 0.1 µM.

For the compound `COC(=O)N1CCc2ccc3c(nc([C@H]4CC[C@](C)(C(=O)O)CC4)n3[C@H](C)Cn3cc(Cl)cn3)c2C1` [Compound 309], the IC50 is 0.1 to 1 µM.

`COC(=O)N1CCc2c(C(=O)O)cc3c(nc(C4CCCCC4)n3CCc3ccccc3)c2C1` [Compound 149]: the IC50 fell in the range of 0.001 to 0.01 µM.

`COC(=O)N1CCc2ccc3c(nc([C@H]4CCC[C@H](C(=O)O)C4)n3C[C@H]3CC[C@@H](OC)CC3)c2C1` [Compound 245]: the IC50 fell in the range of 0.01 to 0.1 µM.

As for `COC(=O)N1CCc2ccc3c(nc(C4CCCCC4)n3[C@@H](C)CC3CCCC[C@@H]3C(=O)O)c2C1` (stereo partly drawn) [Compound 39], the IC50 is 0.001 to 0.01 µM.

With `COC(=O)N1CCc2ccc3c(nc([C@H]4CC[C@@H](S(N)(=O)=O)CC4)n3[C@H](C)Cc3ccccc3)c2C1` [Compound 310], the IC50 lay in the range of 0.1 to 1 µM.

As for `COC(=O)N1CCc2ccc3c(nc(C4CCCCC4)n3CCc3ccc(F)c(C(=O)O)c3)c2C1` [Compound 160], the IC50 is 0.001 to 0.01 µM.

For `COC(=O)N1CCc2ccc3c(nc(-c4cccc(CC(=O)O)c4)n3[C@@H](C)Cc3cc(F)cc(F)c3)c2C1` [Compound 116], the IC50 lay within 0.001 to 0.01 µM.

As to `COC(=O)N1CCc2ccc3c(nc(-c4ccc(C(=O)O)c(OC)c4)n3[C@@H](C)Cc3ccccc3)c2C1` [Compound 208], the IC50 is 0.01 to 0.1 µM.

Take `COC(=O)N1CCc2ccc3c(nc([C@H]4CC[C@H](S(=O)(=O)NC(C)=O)CC4)n3[C@@H](C)Cc3ccccc3)c2C1` [Compound 96]: the IC50 was in the range of 0.001 to 0.01 µM.

Turning to `COC(=O)N1CCc2ccc3c(nc([C@H]4CCC[C@H](C(=O)O)C4)n3Cc3ccc(OC(F)F)cc3)c2C1` [Compound 209], the half-inhibitory concentration (IC50) fell in the range of 0.01 to 0.1 µM.

For the compound `COC(=O)N1CCc2c(Cl)cc3c(nc([C@H]4CC[C@H](C(=O)O)CC4)n3[C@@H](C)Cc3ccccc3)c2C1` [Compound 81], the IC50 was 0.001 to 0.01 µM.

Regarding `COC(=O)N1CCc2ccc3c(nc([C@H]4CC[C@H](OC)CC4)n3C[C@@H](C(=O)O)c3ccccc3)c2C1` [Compound 123], the IC50 was 0.001 to 0.01 µM.

`COC(=O)N1CCc2ccc3c(nc([C@H]4CC[C@H](C(=O)O)CC4)n3[C@@H](C)C[C@H]3CCCCO3)c2C1` [Compound 147]: the half-inhibitory concentration (IC50) lay within 0.001 to 0.01 µM.

`COC(=O)N1CCc2ccc3c(nc([C@H]4CC[C@@](C)(C(=O)O)CC4)n3[C@@H](C)Cn3cc(Cl)cn3)c2C1` [Compound 41]: the IC50 was in the range of 0.001 to 0.01 µM.

As for `COC(=O)N1CCc2ccc3c(nc(C4CCCCC4)n3CC[C@H]3CCC[C@H](C(=O)O)C3)c2C1` [Compound 172], the IC50 lay within 0.001 to 0.01 µM.
